Test results reported in patent publication US20230346827A1 (priority 2020, published 2023).

Tested on: Human Schwann cells
Assay: Gene expression array and pathway analysis, Schwann cells, LMW-DS 0.01 mg/ml 48 h
Type: cell-based
Conditions: for number of genes: abolished nutrient effect / number of genes: total / number of genes: enhanced response to nutrients / number of genes: new effect induced by LMW-DS / number of genes: not different from control / Activation z-score / Predicted activation state relative D2 control: Schwann cells; for Activation z-score / Predicted activation state relative D2 control: D2 LMW-DS treatment
Procedure: For each cell line, n=8 × 25 cm^2 culture flasks were set up. Two flasks were harvested for each cell type on the day of treatment (24 hours after seeding). This represents the Day0 time point. From the remaining flasks, three flasks were treated with Control Medium and three were treated with Culture Medium (CM) containing LMW-DS to give a final concentration of 0.01 mg/ml. Cells from the treated flasks were collected after 48 hours. Therefore the collected data represent (a) untreated cells (Day0 Controls and Day2 Controls) and (b) cells treated with LMW-DS (ILB®, Tikomed AB, Viken, Sweden, WO 2016/076780) for 48 hours (Day2 LMW-DS treated).
Schwann cells growth medium was prepared by adding 10% of fetal bovine serum (FBS) to high-glucose DMEM and pre-warmed to 37° C. Cells were thawed in a 37° C. water bath for no longer than 2 min.
Cells from 12 vials were each gently transferred to a tube containing 10 ml of high-glucose DMEM medium and centrifuged at 400 relative centrifugal field (RCF) for 10 min. Pellet was re-suspended in culture medium. The cells from the 12 vials were mixed and distributed equally into the previously coated 25 cm^2 flasks (n=8). Cells were incubated at 37° C. with 5% CO2. Cells were allowed to settle for 24 hours before LMW-DS treatment.
LMW-DS was provided at a stock concentration of 20 mg/ml and was kept in a temperature monitored refrigerator at 4° C. A fresh 100x LMW-DS stock (1.0 mg/ml) was prepared in sterile DMEM-F12. The concentrated drug stock was sterile filtered and added to the respective culture media (19.6 ml CM and 0.4 ml LMW-DS stock solution). The Control was made using 19.6 ml CM and 0.4 ml of DMEM-F12. LMW-DS and CM were added to the respective flasks (5 ml each) to reach the 0.01 mg/ml concentration of LMW-DS in each dish with a total of 10 ml CM each.
CM was aspirated into a clean and labelled 15 ml Falcon tube. The flasks (without culture medium) were placed into the -80° C. freezer for 30 minutes. The CM in the Falcon tubes was spun at 3000 x g for 5 minutes. Supernatant was removed and the small pellet was re-suspended in 2.5 ml Trizol:Water (4:1) solution at room temperature (RT, ~22° C.).
Two aliquots of 1 ml lysate were removed from each sample and 200 µl of chloroform was added to each (0.2 ml of chloroform per 1 ml of TRIzol Reagent used during the cell lysis step) and the tube was shaken vigorously. Samples were stored at RT for 2-3 minutes and subsequently centrifuged at 12,000 x g for 15 minutes at 4° C.
The RNA was precipitated from the aqueous phase by adding an equal amount of 100% ethanol. The precipitated RNA was fixed onto a Spin Cartridge, washed twice and dried. The RNA was eluted in 50 µl warm RNase-Free Water. The amount and quality of the purified RNA was measured by Nanodrop. The RNA was stored at -80° C. before transfer to Source Bioscience for Array analysis.
The expression data were downloaded into separate files for each cell line. The ‘Background corrected’ expression is the data from the “gProcessedSignal” of the arrays that is the result of the background signal extracted from the actual signal of the relevant probe. This is the most often used variable in array analysis. The background corrected signal was log2 transformed for all samples for statistical analysis. To reduce the false discovery rate in the samples, the signals that were below ‘expression level’ were removed. The ‘below expression’ level was set at 5 for the log2 transformed expression values.
Based on the expression pattern of the Control probes on each array it was decided to carry out Median Centering for all arrays before analysis to reduce the variability of the results. […]

[1] = pathway analysis of gene expression
[2] = upstream regulator HGF (from line above)

For sodium salt of dextran sulfate [LMW-DS], the “attachment-related molecules differentially expressed” value was 17, the “number of differentially expressed genes” value (D0 control to D2 LMW-DS treated) was 1244 and the “number of differentially expressed genes” value (D2 control to D2 LMW-DS treated) was 700. The “number of genes: abolished nutrient effect” value (no effect) was 21, the “number of genes: total” value (no effect) was 21 and the “number of genes: abolished nutrient effect” value (significant downregulation) was 1. For the same substance, the “number of genes: enhanced response to nutrients” value (shortened to “number of genes … to nutrients”) (significant downregulation) was 122, the “number of genes: new effect induced by LMW-DS” value (from here on “number of genes … by LMW-DS”) (significant downregulation) was 352 and the “number of genes: not different from control” value (“number of genes: not different” below) (significant downregulation) was 42. For the same substance, the “number of genes: total” value (significant downregulation) was 517, the “number of genes: abolished nutrient effect” value (significant upregulation) was 13 and the “number of genes … to nutrients” value (significant upregulation) was 441. For the same substance, the “number of genes … by LMW-DS” value (significant upregulation) was 74, the “number of genes: not different” value (significant upregulation) was 373 and the “number of genes: total” value (significant upregulation) was 901. The “number of genes: abolished nutrient effect” value (total) was 35, the “number of genes … to nutrients” value (total) was 563 and the “number of genes … by LMW-DS” value (total) was 426. The “number of genes: not different” value (total) was 415, the “number of genes: total” value (total) was 1439 and the “TGFβ-induced effect in adhesion of immune cells, activation and aggregation of cells, fibrosis, self-activation of TGFβ” value (molecular network analysis) was “totally abolished”. For the same substance, the “Complex III (cytochrome bc1)” value [1] was “inhibited”, the “activity and/or levels of glutamate transporters (SLC1A2/3)” value [1] was “increased” and the “genes altered in Control cultures with no changes in LMW-DS treated cultures” value (two days) was 21. For the same substance, the “genes downregulated by growth factors, downregulation stronger with LMW-DS” value (two days) was 122, the “genes downregulated in control cultures, upregulated in LMW-DS treated cultures” value (two days) was 13 and the “genes increased in control cultures, downregulated in LMW-DS treated cultures” value (two days) was 1. For the same substance, the “genes upregulated in Control cultures, upregulation stronger with LMW-DS” value (two days) was 441, the Activation z-score (upstream regulator ANGPT2) was 1.283 and the “Predicted activation state relative D2 control” value (upstream regulator ANGPT2) was “Activated”. The Activation z-score (upstream regulator BMP2) was 1.395, the “Predicted activation state relative D2 control” value (upstream regulator BMP2) was “Activated” and the Activation z-score (upstream regulator BMP4) was 0.927. The “Predicted activation state relative D2 control” value (upstream regulator BMP4) was “Activated”, the Activation z-score (upstream regulator BMP7) was 1.86 and the “Predicted activation state relative D2 control” value (upstream regulator BMP7) was “Activated”. The Activation z-score (upstream regulator EGF) was 2.059, the “Predicted activation state relative D2 control” value (upstream regulator EGF) was “Activated” and the Activation z-score (upstream regulator FGF2) was 2.37. The “Predicted activation state relative D2 control” value (upstream regulator FGF2) was “Activated”, the Activation z-score (upstream regulator GDF2) was 2.561 and the “Predicted activation state relative D2 control” value (upstream regulator GDF2) was “Activated”. For the same substance, the Activation z-score [2] was 1.432, the “Predicted activation state relative D2 control” value [2] was “Activated” and the Activation z-score (upstream regulator IGF1) was 1.332. For the same substance, the “Predicted activation state relative D2 control” value (upstream regulator IGF1) was “Activated”, the Activation z-score (upstream regulator NRG1) was 1.768 and the “Predicted activation state relative D2 control” value (upstream regulator NRG1) was “Activated”. For the same substance, the Activation z-score (upstream regulator NRTN) was 0.958, the “Predicted activation state relative D2 control” value (upstream regulator NRTN) was “Activated” and the Activation z-score (upstream regulator PGF) was 0.254. The “Predicted activation state relative D2 control” value (upstream regulator PGF) was “Activated”, the Activation z-score (upstream regulator TGFβ1) was 1.05 and the “Predicted activation state relative D2 control” value (upstream regulator TGFβ1) was “Less inhibited”. The Activation z-score (upstream regulator VEGFA) was 3.4, the “Predicted activation state relative D2 control” value (upstream regulator VEGFA) was “Activated” and the Activation z-score (upstream regulator WISP2) was -0.896. For the same substance, the “Predicted activation state relative D2 control” value (upstream regulator WISP2) was “Less inhibited”.
